Measured values reported in the supplement of paper PMC12317010.
Where a name gives a salt, the structure may show the parent alone.

Experiment: collision cross section in nitrogen (drift tube, single-field); higher = larger gas-phase ion size
[1] = ion type: [M-H], ion source: ESI, ion mode: Negative
[2] = ion type: [M+H], ion source: APCI, ion mode: Positive
[3] = ion type: [M+H], ion source: ESI, ion mode: Positive
[4] = ion type: [M+Na], ion source: ESI, ion mode: Positive
[5] = ion type: [M+], ion source: APCI, ion mode: Positive
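Also: chemical standards at 10 µM analysed by drift tube IMS-QTOF MS in about 3.95 torr nitrogen, mean of duplicate injections differing ≤1%, mass error below 10 ppm.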

collision cross section in nitrogen [1] | collision cross section in nitrogen [2] | collision cross section in nitrogen [3] | collision cross section in nitrogen [5] | Compound | collision cross section in nitrogen [4]
112.7 Å² | – | – | – | O=S(O)CO [Hydroxymethanesulfinic acid monosodium salt dihydrate] | –
– | 197.7 Å² | 197.2 Å² | – | OCCOCCN1CCN(C(c2ccccc2)c2ccc(Cl)cc2)CC1 (stereo unspecified) [Hydroxyzine hydrochloride] | 195.7 Å²
– | – | – | – | CCC(C)OC(=O)N1CCCCC1CCO (stereo unspecified) [Icaridin] | 166.5 Å²
– | – | – | – | CCCCCCCCCc1ccc(OCCOCCO)cc1 [Igepal CO-210] | 191.3 Å²
193.7 Å² | 195.4 Å² | 194.9 Å² | – | CC(=O)S[C@H](C(=O)N[C@H]1Cc2ccccc2[C@H]2CCC[C@@H](C(=O)O)N2C1=O)C(C)C [Ilepatril] | 198.7 Å²
– | 167.9 Å² | 167.9 Å² | – | C=CCOC(Cn1ccnc1)c1ccc(Cl)cc1Cl (stereo unspecified) [Imazalil] | –
– | – | – | – | O=C(NCNC(=O)NC1C(=O)NC(=O)N1CO)NC1C(=O)NC(=O)N1CO (stereo unspecified) [Imidazolidinyl urea] | 183.4 Å²
– | 165.8 Å² | 166 Å² | – | CN(C)CCCN1c2ccccc2CCc2ccccc21 [Imipramine hydrochloride] | 172.7 Å²
186.6 Å² | – | 187.6 Å² | – | CC1Cc2ccccc2N1NC(=O)c1ccc(Cl)c(S(N)(=O)=O)c1 (stereo unspecified) [Indapamide] | 195.9 Å²
– | – | – | 156.7 Å² | c1ccc2c(c1)-c1ccc3ccc4cccc5cc-2c1c3c45 [Indeno[1,2,3-cd]pyrene] | –
– | 262.9 Å² | 262.3 Å² | – | CC(C)(C)NC(=O)[C@@H]1CN(Cc2cccnc2)CCN1C[C@@H](O)C[C@@H](Cc1ccccc1)C(=O)N[C@H]1c2ccccc2C[C@H]1O [Indinavir sulfate] | 246.1 Å²
154.8 Å² | – | – | – | O=C(O)CCCc1c[nH]c2ccccc12 [Indole-3-butyric acid] | –
141.6 Å² | 139.3 Å² | – | – | O=C(O)C(=O)Cc1c[nH]c2ccccc12 [Indole-3-pyruvic acid] | –
119.5 Å² | – | – | – | c1ccc2[nH]ccc2c1 [Indole] | –
– | 120.8 Å² | – | – | c1ccc2c(c1)CCN2 [Indoline] | –
– | – | 181.2 Å² | – | COc1ccc2c(c1)c(CC(=O)O)c(C)n2C(=O)c1ccc(Cl)cc1 [Indomethacin] | 191.6 Å²
206.2 Å² | 215.9 Å² | 216 Å² | – | O=C(N[C@@H](Cc1ccccc1)[C@@H](O)C(=O)N1C[C@@H](O)[C@@H](O)C1)c1cc2cc(Cl)ccc2[nH]1 [Ingliforib] | 220.4 Å²
147.3 Å² | – | 146.4 Å² | – | Oc1c(I)cc(I)c2cccnc12 [Iodoquinol] | –
196.1 Å² | 194.5 Å² | 194.2 Å² | – | COC(=O)c1ccc(I)cc1S(=O)(=O)NC(=O)Nc1nc(C)nc(OC)n1 [Iodosulfuron methyl ester sodium salt] | 195.8 Å²
– | – | – | 171.5 Å² | CCC(Cc1c(I)cc(I)c(N)c1I)C(=O)O (stereo unspecified) [Iopanoic acid] | –
– | 184.2 Å² | – | – | Cc1ccc(C(C)NC(=O)[C@@H](NC(=O)OC(C)C)C(C)C)cc1 (stereo partly specified) [Iprovalicarb] | 183.5 Å²
354.9 Å² | – | – | 355.6 Å² | CC(C)(C)c1cc(CCC(=O)OCC(COC(=O)CCc2cc(C(C)(C)C)c(O)c(C(C)(C)C)c2)(COC(=O)CCc2cc(C(C)(C)C)c(O)c(C(C)(C)C)c2)COC(=O)CCc2cc(C(C)(C)C)c(O)c(C(C)(C)C)c2)cc(C(C)(C)C)c1O [Irganox 1010] | 354.9 Å²

collision cross section in nitrogen [1] | collision cross section in nitrogen [2] | collision cross section in nitrogen [3] | collision cross section in nitrogen [5] | Compound | collision cross section in nitrogen [4]
155.8 Å² | – | – | – | CCC(=O)O[C@H]1C[C@@H]2CC[C@@]1(C)C2(C)C [Isobornyl propanoate] | –
– | – | – | – | COP(N)(=S)Oc1ccccc1C(=O)OC(C)C (stereo unspecified) [Isocarbophos] | 168.6 Å²
155 Å² | – | – | – | CC(=O)C(C)=CC1C(C)=CCCC1(C)C (stereo not drawn) [Isomethyl-alpha-ionone] | –
125.3 Å² | – | – | – | NNC(=O)c1ccncc1 [Isoniazid] | –
177.8 Å² | – | – | – | CC(C)CCCCCCCCCCCCCCC(=O)O [Isooctadecanoic acid] | –
– | – | 142.3 Å² | – | CC1(C)CC(N)CC(C)(CN)C1 (stereo unspecified) [Isophorone diamine] | –
145 Å² | – | 149.1 Å² | – | NNC(=O)c1cccc(C(=O)NN)c1 [Isophthalyl dihydrazide] | –
165.3 Å² | – | – | – | CCCCCCCCCCCC(=O)OC(C)C [Isopropyl Laurate] | –
136.9 Å² | – | – | – | Cc1ccc(C(C)C)cc1O [Isopropyl-o-cresol] | –
151.9 Å² | – | 151 Å² | – | CC(C)NCC(O)c1ccc(O)c(O)c1 (stereo unspecified) [Isoproterenol hydrochloride] | –
– | 122.3 Å² | – | – | c1ccc2cnccc2c1 [Isoquinoline] | –
– | – | – | – | CC1(C)[C@H](/C=C2\CCSC2=O)[C@@H]1C(=O)OCc1coc(Cc2ccccc2)c1 [Kadethrin] | 192.5 Å²
162.2 Å² | 163.2 Å² | 162.8 Å² | – | O=c1c(O)c(-c2ccc(O)cc2)oc2cc(O)cc(O)c12 [Kaempferol] | –
– | 217.3 Å² | 216.8 Å² | – | CC(=O)N1CCN(c2ccc(OC[C@H]3CO[C@](Cn4ccnc4)(c4ccc(Cl)cc4Cl)O3)cc2)CC1 [Ketoconazole] | 225.3 Å²
– | 151.6 Å² | 151.1 Å² | – | COc1c2occc2c(OC)c2c(=O)cc(C)oc12 [Khellin] | 167.5 Å²
148.4 Å² | 144.3 Å² | 144.4 Å² | – | c1coc(CNc2[nH]cnc3ncnc2-3)c1 [Kinetin] | 159.2 Å²
132.8 Å² | – | – | – | OC[C@@H](O)[C@H](O)[C@@H](O)[C@@H](O)CO [L-Glucitol] | 142.9 Å²
125.9 Å² | – | – | – | N[C@@H](CCC(=O)O)C(=O)O [L-Glutamic acid hydrochloride] | –
140.8 Å² | – | – | – | N[C@@H](Cc1ccccc1)C(=O)O [L-Phenylalanine] | –
– | 175.7 Å² | 175.2 Å² | – | CC(CCc1ccccc1)NCC(O)c1ccc(O)c(C(N)=O)c1 (stereo unspecified) [Labetalol hydrochloride] | 176.8 Å²
– | 185.5 Å² | 184.7 Å² | – | CCCCCCCCCCCCN1CCCCCC1=O [Laurocapram] | 185.4 Å²
183.1 Å² | – | – | – | CCCCCCCCCCCCOC(=O)c1cc(O)c(O)c(O)c1 [Lauryl gallate] | –

Compound | collision cross section in nitrogen [1] | collision cross section in nitrogen [2] | collision cross section in nitrogen [3] | collision cross section in nitrogen [5] | collision cross section in nitrogen [4]
O=P1(NCCCl)OCCCN1CCCl (stereo unspecified) [Ifosfamide] | – | 148.1 Å² | 148.8 Å² | – | 158.1 Å²
COCc1cnc(C2=NC(C)(C(C)C)C(=O)N2)c(C(=O)O)c1 (stereo unspecified) [Imazamox] | 178.2 Å² | 172.2 Å² | 172.4 Å² | – | 188.9 Å²
Cc1cnc(C2=NC(=O)C(C)(C(C)C)N2)c(C(=O)O)c1 (stereo unspecified) [Imazapic] | 168.3 Å² | 162.2 Å² | 162.4 Å² | – | 178.8 Å²
CC(C)C1(C)N=C(c2ncccc2C(=O)O)NC1=O (stereo unspecified) [Imazapyr] | 161.8 Å² | 156.5 Å² | 156.7 Å² | – | 173.1 Å²
CC(C)C1(C)N=C(c2nc3ccccc3cc2C(=O)O)NC1=O (stereo unspecified) [Imazaquin] | 176.9 Å² | 171.7 Å² | 171.7 Å² | – | 188.4 Å²
O=[N+]([O-])/N=C1\NCCN1Cc1ccc(Cl)nc1 [Imidacloprid] | 157.3 Å² | – | 156 Å² | – | 159.5 Å²
COC(=O)N(C(=O)N1CO[C@@]2(C(=O)OC)Cc3cc(Cl)ccc3C2=N1)c1ccc(OC(F)(F)F)cc1 [Indoxacarb] | – | 206.6 Å² | 205.7 Å² | – | 220.4 Å²
CC(C)C1CCC(Cc2ccc(Cl)cc2)C1(O)Cn1cncn1 (stereo unspecified) [Ipconazole] | – | 173.8 Å² | 173.8 Å² | – | 179.6 Å²
CCOP(=S)(OCC)Oc1nc(Cl)n(C(C)C)n1 [Isazofos] | – | – | 166.9 Å² | – | 174.8 Å²
CCOP(=S)(NC(C)C)Oc1ccccc1C(=O)OC(C)C (stereo unspecified) [Isofenphos] | 173.7 Å² | – | – | – | 184.2 Å²
CCCN(CCC)c1c([N+](=O)[O-])cc(C(C)C)cc1[N+](=O)[O-] [Isopropalin] | 175.1 Å² | 172.4 Å² | – | – | –
CC(C)c1ccc(NC(=O)N(C)C)cc1 [Isoproturon] | 155.4 Å² | 152.9 Å² | 152.1 Å² | – | 158.8 Å²
CS(=O)(=O)c1cc(C(F)(F)F)ccc1C(=O)c1cnoc1C1CC1 [Isoxaflutole] | 175.5 Å² | – | – | – | 185.2 Å²
C[C@H]1O[C@H](O[C@H]2[C@H](O)[C@@H](O)[C@@H](O)[C@H](O)[C@@H]2O)[C@@H](N)C[C@@H]1NC(=N)C(=O)O [Kasugamycin hydrochloride] | 178 Å² | – | 165.9 Å² | – | –
CNC1(c2ccccc2Cl)CCCCC1=O (stereo unspecified) [Ketamine hydrochloride] | – | 149.7 Å² | 149.4 Å² | – | 158.8 Å²
CCOC(=O)C(C)OC(=O)c1cc(Oc2ccc(C(F)(F)F)cc2Cl)ccc1[N+](=O)[O-] (stereo unspecified) [Lactofen] | 196 Å² | – | – | – | 212.7 Å²
